Results taken from PMC4505723 (Journal of the American Chemical Society, 2015).

Test system: L. lactis HP cells
Test: liquid media growth assays with L. lactis HP cells
Format: cell-based
Details: liquid media growth assay (Figure S4)

lacticin 481 [wt lacticin 481]
IC50: 100 ± 25 nM

nukacin ISK-1
IC50: 400 ± 80 nM
